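Exposure lasted 48 hours, with cells grown in 96-well plates and compounds tested at five concentrations. The concentration for 50% growth inhibition is given as GI50. TGI: concentration producing complete growth inhibition.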
How the values were obtained:
Assay in all cases: DTP human tumour cell line panel, 48 h; in the data active = GI50 below about 0.43 µM; inactive = the rest
[1] = tested on: HCT-15 colon
[2] = tested on: MALME-3M melanoma
[3] = tested on: HL-60(TB) leukemia
[4] = tested on: SK-MEL-5 melanoma
[5] = tested on: A498 renal
[6] = tested on: NCI-H23 lung
[7] = tested on: CAKI-1 renal
[8] = tested on: OVCAR-8 ovarian
[9] = tested on: HOP-62 NSCLC
[10] = tested on: NCI-H522 lung
[11] = tested on: LOX IMVI melanoma
[12] = tested on: CCRF-CEM leukemia
[13] = tested on: DU-145 prostate
[14] = tested on: HS 578T breast
[15] = tested on: ACHN renal
[16] = tested on: UACC-62 melanoma
[17] = tested on: SF-295 CNS
[18] = tested on: SK-MEL-28 melanoma
[19] = tested on: SF-539 CNS
[20] = tested on: RXF 393 renal
[21] = tested on: HOP-92 NSCLC
[22] = tested on: OVCAR-5 ovarian
[23] = tested on: OVCAR-3 ovarian
[24] = tested on: A549 NSCLC
[25] = tested on: PC-3 prostate
[26] = tested on: RPMI-8226 leukemia
[27] = tested on: NCI/ADR-RES ovarian
[28] = tested on: UACC-257 melanoma
[29] = tested on: TK-10 renal
[30] = tested on: KM12 colon
[31] = tested on: HCC-2998 colon
[32] = tested on: MCF7 breast
[33] = tested on: IGROV1 ovarian
[34] = tested on: BT-549 breast
[35] = tested on: K-562 leukemia
[36] = tested on: SNB-19 CNS
[37] = tested on: HT29 colon
[38] = tested on: SR leukemia
[39] = tested on: SW-620 colon
[40] = tested on: UO-31 renal
[41] = tested on: MDA-MB-435
[42] = tested on: NCI-H460 lung
[43] = tested on: SF-268 CNS
[44] = tested on: NCI-H226 lung
[45] = tested on: OVCAR-4 ovarian
[46] = tested on: MDA-MB-231 breast
[47] = tested on: M14 melanoma
[48] = tested on: SK-OV-3 ovarian
[49] = tested on: HCT-116 colon
[50] = tested on: SK-MEL-2 melanoma
[51] = tested on: SN12C renal
[52] = tested on: COLO 205 colon
[53] = tested on: 786-0 renal
[54] = tested on: MOLT-4 leukemia
[55] = tested on: U251 CNS
[56] = tested on: SNB-75 CNS
[57] = tested on: T-47D breast
[58] = tested on: EKVX NSCLC

CC(C)OP(=O)(OC(C)C)c1ncc(-c2ccc(C(F)(F)F)cc2)c(NC2CCCCCC2)n1
inactive: GI50 [1] > 10 µM | GI50 [2] > 10 µM | GI50 [3] > 10 µM | GI50 [4] > 10 µM | GI50 [5] > 10 µM | GI50 [6] > 10 µM | GI50 [7] > 10 µM | GI50 [8] > 10 µM | GI50 [9] > 10 µM | GI50 [10] > 10 µM | GI50 [11] > 10 µM | GI50 [12] > 10 µM | GI50 [13] > 10 µM | GI50 [14] > 10 µM | GI50 [15] > 10 µM | GI50 [16] > 10 µM | GI50 [17] > 10 µM | GI50 [18] > 10 µM | GI50 [19] > 10 µM | GI50 [20] > 10 µM | GI50 [21] > 10 µM | GI50 [22] > 10 µM | GI50 [23] > 10 µM | GI50 [24] > 10 µM | GI50 [25] 9.51 µM | GI50 [26] > 10 µM | GI50 [27] > 10 µM | GI50 [28] > 10 µM | GI50 [29] > 10 µM | GI50 [30] > 10 µM | GI50 [31] > 10 µM | GI50 [32] > 10 µM | GI50 [33] > 10 µM | GI50 [34] > 10 µM | GI50 [35] > 10 µM | GI50 [36] > 10 µM | GI50 [37] > 10 µM | GI50 [38] > 10 µM | GI50 [39] > 10 µM | GI50 [40] > 10 µM | GI50 [41] > 10 µM | GI50 [42] > 10 µM | GI50 [43] > 10 µM | GI50 [44] > 10 µM | GI50 [45] > 10 µM | GI50 [46] > 10 µM | GI50 [47] > 10 µM | GI50 [48] > 10 µM | GI50 [49] > 10 µM | GI50 [50] > 10 µM | GI50 [51] > 10 µM | GI50 [52] > 10 µM | GI50 [53] > 10 µM | GI50 [54] > 10 µM | GI50 [55] > 10 µM | GI50 [56] > 10 µM | GI50 [57] > 10 µM
> 10 µM: TGI [1] | TGI [2] | TGI [3] | TGI [4] | TGI [5] | TGI [6] | TGI [7] | TGI [8] | TGI [9] | TGI [10] | TGI [11] | TGI [12] | TGI [13] | TGI [14] | TGI [15] | TGI [16] | TGI [17] | TGI [18] | TGI [19] | TGI [20] | TGI [21] | TGI [22] | TGI [23] | TGI [24] | TGI [25] | TGI [26] | TGI [27] | TGI [28] | TGI [29] | TGI [30] | TGI [31] | TGI [32] | TGI [33] | TGI [34] | TGI [35] | TGI [36] | TGI [37] | TGI [38] | TGI [39] | TGI [40] | TGI [41] | TGI [42] | TGI [43] | TGI [44] | TGI [45] | TGI [46] | TGI [47] | TGI [48] | TGI [49] | TGI [50] | TGI [51] | TGI [52] | TGI [53] | TGI [54] | TGI [55] | TGI [56] | TGI [57]

Cn1c(-c2cccc(N)c2)[n+](C)c2ccccc21
> 100 µM: TGI [1] | TGI [2] | TGI [3] | TGI [4] | TGI [5] | TGI [6] | TGI [7] | TGI [8] | TGI [9] | TGI [11] | TGI [12] | TGI [13] | TGI [14] | TGI [15] | TGI [16] | TGI [17] | TGI [18] | TGI [19] | TGI [20] | TGI [21] | TGI [22] | TGI [23] | TGI [24] | TGI [25] | TGI [26] | TGI [27] | TGI [28] | TGI [29] | TGI [30] | TGI [31] | TGI [32] | TGI [33] | TGI [34] | TGI [35] | TGI [36] | TGI [37] | TGI [38] | TGI [39] | TGI [40] | TGI [41] | TGI [42] | TGI [43] | TGI [44] | TGI [45] | TGI [46] | TGI [47] | TGI [48] | TGI [49] | TGI [50] | TGI [52] | TGI [53] | TGI [54] | TGI [58] | TGI [56] | TGI [57]

— PubChem BioAssay (NCI)
